{"source": "PubChem BioAssay AID2838", "about": "(The Scripps Research Institute Molecular Screening Center, 2010)", "note": "The source made the active and inactive calls.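 The calls were made as follows: active = IC50 at or below 10 µM; inactive = IC50 above 10 µM.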", "data": [{"biological_target": "tRNA 2'-phosphotransferase Tpt1 (Candida albicans SC5314)", "assay": "Candida albicans TPT1 inhibitors, late-stage follow-up, biochemical, fluorescence polarization, dose response (AID 2838)", "conditions": "recombinant caTpt1, RNase T1-coupled fluorescence polarization", "values": [{"smiles": "NC(=O)c1cc[n+](CC2=C(C(=O)O)N3C(=O)[C@@H](NC(=O)C(c4ccccc4)S(=O)(=O)O)[C@H]3SC2)cc1", "note": "(some centres undefined)", "IC50": "inactive"}, {"smiles": "NS(=O)(=O)c1cc(C(=O)NC2CCSc3ccccc32)ccc1Cl", "note": "(centres undefined)", "IC50": "> 49.8 µM (inactive)"}, {"smiles": "CC1=C(C#N)C(=O)N(C2CCS(=O)(=O)C2)C(=O)/C1=C\\c1ccco1", "note": "(centres undefined)", "IC50": "> 49.8 µM (inactive)"}, {"smiles": "OC(Cn1cncn1)(Cn1cncn1)c1ccc(F)cc1F", "IC50": "> 49.8 µM (inactive)"}]}]}
